The values that follow come from patent US8461297B2, “Cytoplasmic malate dehydrogenase (MDH1) targeted treatment for neurodegenerative diseases” (Ramot at Tel-Aviv University, Ltd., priority 2007, dated 2013).

Holding throughout (format): cell-based
The subject of experiment [1] is G93A-hSOD1-GFP-expressing NSC-34 cells. The experiment can be described thus: Cell survival (methylene blue assay) under rotenone or low-glucose challenge, G93A-hSOD1-GFP cells. How it is done: (§1) The functional significance of the loss of such interaction was assessed by alleviation of the rotenone (a mitochondrial inhibitor) or low-glucose challenge in NSC-34 clones expressing an inducible form of the mutant G93A SOD1-GFP as monitored by cell survival. The […] (SEQ ID NO: 1) peptide was synthesized (SBS Gentech Beijing) with 5,6-TAMRA modification (to allow detection) at the N-terminus. The TAMRA-modified peptide was dissolved in 10% acetic acid and added to cell culture medium in culture medium containing 1% ethanol. Thus, 15,000 cells (WT-hSOD1 or G93A-hSOD1) seeded in each well of a 96-well plate in DMEM, 10% serum. 24 hours later, cells were incubated with 1*10^-6M cytMDH peptide (or acetic acid/ethanol vehicle) for 4 h without serum. 1-10 micromole/L Rotenone in DMEM, 10% serum was then added for 24 hours, or medium replaced with low glucose (1 mg/ml) in DMEM with 5% serum for 72 hours. Cell survival was then assessed. It was expected that if the identified peptide interaction is resolving the gain of toxic interaction of G93A SOD1-GFP, then survival of the cells upon rotenone- or low-glucose challenge will improve.
(§2) 15,000 cells (WT-hSOD1 or G93A-hSOD1) were seeded in each well of a 96 well-plate in DMEM, 10% serum. 24 hours later, the cells were incubated with 3 mM octanoic acid with and without 1-10 micromole/L rotenone in DMEM, 10% serum for 24 hours. Or, cells were incubated with 3 mM octanoic acid and medium replaced with regular ([…]) or low (1 mg/ml) glucose in DMEM with 5% serum for 72 hours. Cell survival was then assessed. It was expected that if the gain of toxic interaction of G93A SOD1-GFP is due to inhibition of the malate-aspartate shuttle, octanoic acid will provide an alternative energy source through the alternative shunt and the survival of the cells upon rotenone or low-glucose challenge will improve.
(§3) Cell survival was assessed by the methylene blue assay. Cells were fixed with 4% formaldehyde solution for 1 h, then washed with 0.1M sodium borate buffer pH8.5, stained with 1% methylene blue for 20 min and washed with water. Cell-bound dye was eluted with 200 μl of 0.1M HCl. The optical density was assessed at 595 nm in ELISA plate reader.
(§4) The […] (SEQ ID NO: 1) peptide was synthesized (SBS Gentech Beijing) with 5,6-TAMRA modification (to allow detection) at the N-terminus, dissolved in 10% acetic acid, and diluted in cell culture medium containing 1% ethanol. Thus, 15,000 cells (WT-hSOD1 or G93A-hSOD1) seeded in each well of 96 wells plate in DMEM, 10% serum and doxycline (to induce expression of the hSOD1 proteins). 24 hours later, medium was replaced with serum free DMEM, and cells were incubated with 1 micromol/liter of the TAMRA-labeled […] peptide or vehicle (1% acetic acid/ethanol) for 4 hours. […] Cell survival was then assessed.

Experiment [2] has as its system WT-hSOD1-GFP-expressing NSC-34 cells. The experiment can be described thus: Cell survival (methylene blue assay) under rotenone or low-glucose challenge, WT-hSOD1-GFP cells. How it is done:
as §1, §2, §3, §4

Experiment [3] has as its target T1, G93A-hSOD1/cytMDH complex (Homo sapiens, UniProt P00441, G94A).
T1 construct: expressed in transfected cells; host or cells: NSC-34 cells (transient co-transfection)
Briefly: FACS-based FRET test of peptides competing for the G93A-hSOD1-CFP/cytMDH-YFP interaction in co-transfected NSC-34 cells. Particulars: myc-tagged peptide expression plasmid co-transfected at 1:1:1 ratio, excitation 405 nm, emission 530 nm. The text has this:
The screening method was based on the fluorescence resonance energy transfer (FRET) system between cyan fluorescence protein (CFP) chimera proteins and yellow fluorescence protein (YFP) chimera proteins. The present inventors designed and used this system to identify the specific interaction of G93A SOD1 with MDH1 so as to identify a motif within MDH1 that is critical for the G93A SOD1-MDH1 interaction. The agents tested were peptides derived from MDH1.
A Myc-tagged peptide library expressing small fragments of the MDH1 was prepared. MDH1 cDNA was digested with AluI or/and DpnI and the fragments were cloned so that each peptide was placed in the correct reading frame of the original protein and in frame to the human myc tag sequence. G93A SOD1-CFP and MDH1-YFP expression plasmids were transfected into NSC-34 cells with and without the myc-tagged library.
The hypothesis is that the specific MDH1-derived peptides comprising the interacting motif will compete with MDH1 for the G93A SOD1-MDH1 interaction site. In such case, the CFP and YFP fluorescence of the G93A SOD1-CFP and MDH1-YFP will still be present, but the FRET signal will be diminished. The screening studies were performed using a cell sorter (FACS) with 405 nm excitation laser and a 530/30 nm emission filter. […] RNA was extracted from the sorted cells, converted into cDNA and subjected to PCR amplification in order to amplify the peptides DNA sequences.
The DNA sequence from the sorted cells was re-cloned. Four clones were obtained, one corresponding to amino acids 14-27 of the cytMDH protein GQIAHSLLYSIGNG (SEQ ID NO: 2) and three corresponding to amino acids 217-239 of the cytMDH protein […] (SEQ ID NO: 1). The identified clones were re-analyzed in the FACS-based system to verify their ability to compete for the G93A SOD1-MDH1 interaction at 1:1:1 ratio levels. Thus, 5*10^6 NSC-34 cells were transfected with equal amounts of G93A-hSOD1-CFP and cytMDH-YFP and the suspected myc-tagged cytMDH peptide-expressing plasmids.
Ability of the 217-239 peptide to disrupt the G93A-hSOD1-cytMDH1 complex was tested by co-transfection into NSC-34 cells of constructs encoding myc-tagged 217-239 and the FRET-enabled G93A-hSOD1/cytMDH proteins, followed by FACS analysis to measure FRET.

Ends that are not written are not given here. 5,6‑TAMRA = 5,6-carboxytetramethylrhodamine fluorescent label at the N-terminus

T1 sequence (P00441 2-154 G94A limits assumed, one chain of several): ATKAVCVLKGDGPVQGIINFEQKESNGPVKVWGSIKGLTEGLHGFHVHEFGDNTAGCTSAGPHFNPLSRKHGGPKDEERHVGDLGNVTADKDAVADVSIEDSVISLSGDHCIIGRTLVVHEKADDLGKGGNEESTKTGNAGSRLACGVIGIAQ

Consider `CCCCCCCC(=O)O` [octanoic acid, reference compound], for which the “effects of low glucose on cell viability in the presence of octanoic acid” value was “greatly diminished” in experiment [1] (3 mM octanoic acid, low (1 mg/ml) glucose DMEM, 5% serum, 72 h, G93A-hSOD1-GFP cells) and “not” in experiment [2] (3 mM octanoic acid, low (1 mg/ml) glucose DMEM, 5% serum, 72 h, WT-hSOD1-GFP cells). The “effects of rotenone on cell viability in the presence of octanoic acid” value in experiment [1] (3 mM octanoic acid, rotenone 1.25 micromol/liter for 24 h, G93A-hSOD1-GFP cells) is “greatly diminished”; in experiment [2] (3 mM octanoic acid, rotenone 1.25 micromol/liter for 24 h, WT-hSOD1-GFP cells), “not”.
Take “GQIAHSLLYSIGNG (listed as Mus musculus) [14-27 peptide]”: the “FRET signal of G93A-hSOD1-CFP/cytMDH-YFP (disruption of the complex)” value in experiment [3] was “found not to inhibit the interaction”; in experiment [3] (listed as peptide 14-27) it was “positive FRET”.
Regarding “SWLKGEFITTVQQRGAAVIKARK ({5,6‑TAMRA}-SWLKGEFITTVQQRGAAVIKARK; listed as Mus musculus) [217-239 peptide, amino acids 217-239 of the cytMDH protein]”, the “FRET signal of G93A-hSOD1-CFP/cytMDH-YFP (disruption of the complex)” value in experiment [3] was “blocked FRET”; in experiment [3] (listed as SEQ ID NO: 1) it was “prevented the FRET”; in experiment [3] (listed as peptide 217-239), “negative FRET”. Further, the “effects of rotenone on cell viability in the presence of peptide” value is recorded as “greatly diminished” in experiment [1] (1 micromol/liter TAMRA-labeled peptide 4 h, then 0.5 micromol/L rotenone 24 h, G93A-hSOD1-GFP cells) and “not” in experiment [2] (1 micromol/liter TAMRA-labeled peptide 4 h, then 0.5 micromol/L rotenone 24 h, WT-hSOD1-GFP cells). The “effects of low glucose on cell viability in the presence of peptide” value in experiment [1] (1 micromol/liter TAMRA-labeled peptide, low glucose (1 mg/ml) DMEM, 5% serum, 72 h, G93A-hSOD1 cells) is reported as “significantly diminished”; in experiment [2] (1 micromol/liter TAMRA-labeled peptide, low glucose (1 mg/ml) DMEM, 5% serum, 72 h, WT-hSOD1 cells), “not”.
